# Measured values reported in US10111890B2, “9-aminomethyl minocycline compounds and uses thereof” (Paratek Pharmaceuticals, Inc., priority 2016, dated 2018).
# How the values were obtained:
# [1] = test system: ABSSSI known or suspected to be due to Gram-positive pathogens; experiment: Phase 3 oral omadacycline vs oral linezolid in ABSSSI: Investigator's Assessment of Clinical Response at PTE; format: in vivo, human; settings: for Difference (95% CI) in Overall Clinical Success rate at PTE: omadacycline minus linezolid
# [2] = Phase 1 multiple oral dose study: safety and tolerability (TEAEs, serum chemistry)
# [3] = 600 mg (n = 24), listed as omadacycline
# [4] = 300, 450, 600 mg once daily x 5 days
smiles,measurement,setting,value
"CN(C)c1cc(CNCC(C)(C)C)c(O)c2c1C[C@H]1C[C@H]3[C@H](N(C)C)C(O)=C(C(N)=O)C(=O)[C@@]3(O)C(O)=C1C2=O [Omadacycline, 9-[(2,2-dimethyl-propylamino)-methyl]-minocycline]",Overall clinical response at PTE: Clinical Failure,"[1]; investigator assessment, CE-PTE",6 (2.1) n (%)
same,Overall clinical response at PTE: Clinical Success,"[1]; investigator assessment, CE-PTE (N = 284 / N = 292)",278 (97.9) n (%)
same,Overall clinical response at PTE: Clinical Failure,"[1]; investigator assessment, mITT",12 (3.3) n (%)
same,Overall clinical response at PTE: Clinical Failure or Indeterminate,"[1]; investigator assessment, mITT",57 (15.8) n (%)
same,Overall clinical response at PTE: Indeterminate,"[1]; investigator assessment, mITT",45 (12.5) n (%)
same,Overall clinical response at PTE: Clinical Success,"[1]; investigator assessment, mITT (N = 360 per arm)",303 (84.2) n (%)
same,"Difference in Overall Clinical Success rate at PTE, omadacycline minus linezolid",[1]; mITT,3.3%
same,Difference (95% CI) in Overall Clinical Success rate at PTE,"[1]; Cellulitis/erysipelas, actual type, mITT","−4.5 (−14.0, 4.7)"
same,Difference (95% CI) in Overall Clinical Success rate at PTE,"[1]; Cellulitis/erysipelas, as randomized, mITT","−5.1 (−14.9, 4.3)"
same,Difference (95% CI) in Overall Clinical Success rate at PTE,"[1]; Major Abscess, actual type, mITT","5.3 (−8.4, 19.2)"
same,Difference (95% CI) in Overall Clinical Success rate at PTE,"[1]; Major Abscess, as randomized, mITT","5.3 (−8.4, 19.2)"
same,Difference (95% CI) in Overall Clinical Success rate at PTE,"[1]; Wound Infection, actual type, mITT","5.7 (−2.0, 13.4)"
same,Difference (95% CI) in Overall Clinical Success rate at PTE,"[1]; Wound Infection, as randomized, mITT","6.1 (−1.6, 13.7)"
same,"Any TEAE, % of subjects",[2]; 300 mg (n = 26),(19.2) %
same,"Any TEAE, n of subjects",[2]; 300 mg (n = 26),5 n
same,"Most frequent TEAEs: Dizziness, %",[2]; 300 mg (n = 26),(7.7) %
same,"Most frequent TEAEs: Nausea, %",[2]; 300 mg (n = 26),(7.7) %
same,"Most frequent TEAEs: Vomiting, %",[2]; 300 mg (n = 26),(7.7) %
same,"TEAEs leading to early discontinuation of study drug: All, %",[2]; 300 mg (n = 26),(3.8) %
same,"TEAEs leading to early discontinuation of study drug: Nausea, %",[2]; 300 mg (n = 26),(3.8) %
same,"TEAEs leading to early discontinuation of study drug: Vomiting, %",[2]; 300 mg (n = 26),(3.8) %
same,"Treatment-related TEAE, % of subjects",[2]; 300 mg (n = 26),(15.4) %
same,"Treatment-related TEAE, n of subjects",[2]; 300 mg (n = 26),4 n
same,"Treatment-related TEAE, % of subjects","[2]; 300 mg (n = 26), listed as omadacycline",15.4%
same,median change in alanine aminotransferase (ALT) concentration between baseline and Day 5,[2]; 300 mg omadacycline,−2.0 IU/L
same,"Any TEAE, % of subjects",[2]; 450 mg (n = 24),(12.5) %
same,"Any TEAE, n of subjects",[2]; 450 mg (n = 24),3 n
same,"Most frequent TEAEs: ALT increased, %",[2]; 450 mg (n = 24),(4.2) %
same,"Most frequent TEAEs: Nausea, %",[2]; 450 mg (n = 24),(4.2) %
same,"TEAEs leading to early discontinuation of study drug: ALT increased, %",[2]; 450 mg (n = 24),(4.2) %
same,"TEAEs leading to early discontinuation of study drug: All, %",[2]; 450 mg (n = 24),(4.2) %
same,"Treatment-related TEAE, % of subjects",[2]; 450 mg (n = 24),(8.3) %
same,"Treatment-related TEAE, n of subjects",[2]; 450 mg (n = 24),2 n
same,"Treatment-related TEAE, % of subjects","[2]; 450 mg (n = 24), listed as omadacycline",8.3%
same,median change in alanine aminotransferase (ALT) concentration between baseline and Day 5,[2]; 450 mg omadacycline,5.0 IU/L
same,"Any TEAE, % of subjects",[2]; 600 mg (n = 24),(25.0) %
same,"Any TEAE, n of subjects",[2]; 600 mg (n = 24),6 n
same,"Most frequent TEAEs: ALT increased, %",[2]; 600 mg (n = 24),(4.2) %
same,"Most frequent TEAEs: Diarrhea, %",[2]; 600 mg (n = 24),(8.3) %
same,"Most frequent TEAEs: Dizziness, %",[2]; 600 mg (n = 24),(4.2) %
same,"Most frequent TEAEs: Nausea, %",[2]; 600 mg (n = 24),(16.7) %
same,"Most frequent TEAEs: Vomiting, %",[2]; 600 mg (n = 24),(4.2) %
same,"TEAEs leading to early discontinuation of study drug: All, %",[2]; 600 mg (n = 24),(4.2) %
same,"TEAEs leading to early discontinuation of study drug: Lipase increased, %",[2]; 600 mg (n = 24),(4.2) %
same,"Treatment-related TEAE, % of subjects",[2]; 600 mg (n = 24),(25.0) %
same,"Treatment-related TEAE, n of subjects",[2]; 600 mg (n = 24),6 n
same,"Most frequent TEAEs: Nausea, %",[2]; [3],16.7%
same,"Treatment-related TEAE, % of subjects",[2]; [3],25.0%
same,median change in alanine aminotransferase (ALT) concentration between baseline and Day 5,[2]; 600 mg omadacycline,19.5 IU/L
same,serious TEAEs (SAEs),[2]; [4],no serious TEAEs (SAEs) reported
same,severity of TEAEs,[2]; [4],either mild or moderate in severity
same,"Any TEAE, % of subjects",[2]; Omadacycline Overall (n = 26),(38.5) %
same,"Any TEAE, n of subjects",[2]; Omadacycline Overall (n = 26),10 n
same,"Most frequent TEAEs: ALT increased, %",[2]; Omadacycline Overall (n = 26),(7.7) %
same,"Most frequent TEAEs: Diarrhea, %",[2]; Omadacycline Overall (n = 26),(7.7) %
same,"Most frequent TEAEs: Dizziness, %",[2]; Omadacycline Overall (n = 26),(11.5) %
same,"Most frequent TEAEs: Nausea, %",[2]; Omadacycline Overall (n = 26),(23.1) %
same,"Most frequent TEAEs: Vomiting, %",[2]; Omadacycline Overall (n = 26),(11.5) %
same,"TEAEs leading to early discontinuation of study drug: ALT increased, %",[2]; Omadacycline Overall (n = 26),(3.8) %
same,"TEAEs leading to early discontinuation of study drug: All, %",[2]; Omadacycline Overall (n = 26),(11.5) %
same,"TEAEs leading to early discontinuation of study drug: Lipase increased, %",[2]; Omadacycline Overall (n = 26),(3.8) %
same,"TEAEs leading to early discontinuation of study drug: Nausea, %",[2]; Omadacycline Overall (n = 26),(3.8) %
same,"TEAEs leading to early discontinuation of study drug: Vomiting, %",[2]; Omadacycline Overall (n = 26),(3.8) %
same,"Treatment-related TEAE, % of subjects",[2]; Omadacycline Overall (n = 26),(34.6) %
same,"Treatment-related TEAE, n of subjects",[2]; Omadacycline Overall (n = 26),9 n
same,"Any TEAE, % of subjects","[2]; Omadacycline Overall (n = 26), listed as omadacycline",38.5%
same,"nausea, % of subjects",[2]; omadacycline 300 and 450 mg dose groups,≤ 7.7%
same,highest individual ALT value,[2]; subject who received 450 mg in Period 1 then 300 mg in Period 2,150 IU/L
